Measurements published in US8168659B2, “1, 5-diphenyl-3-benzylamino-1, 5-dihydropyrrolidin-2-one as CB1 receptor modulators” (Eli Lilly and Company, priority 2006, dated 2012).
Structures can show the parent of a compound that is named as a salt. Where two headings read alike, the source gives them in different places.

Assays:
hCB1 [1] = target: T1, hCB1 (Homo sapiens, UniProt P21554); test: hCB1 SPA GTPγ35S Sf9 membranes, antagonist; type: biochemical; set-up: purchased Applied Cell Sciences, Gaithersburg, Md; PerkinElmer Life Sciences, Boston, Mass; host or cells: Sf9 insect cells (recombinant expression), membranes; conditions: hCB1 SPA GTPγ35S Sf9 Mem 22.7 ug protein/well Antagonist; read-out: Inverse Agonist Potency CB1 (Kb)
T1 sequence (P21554 whole entry): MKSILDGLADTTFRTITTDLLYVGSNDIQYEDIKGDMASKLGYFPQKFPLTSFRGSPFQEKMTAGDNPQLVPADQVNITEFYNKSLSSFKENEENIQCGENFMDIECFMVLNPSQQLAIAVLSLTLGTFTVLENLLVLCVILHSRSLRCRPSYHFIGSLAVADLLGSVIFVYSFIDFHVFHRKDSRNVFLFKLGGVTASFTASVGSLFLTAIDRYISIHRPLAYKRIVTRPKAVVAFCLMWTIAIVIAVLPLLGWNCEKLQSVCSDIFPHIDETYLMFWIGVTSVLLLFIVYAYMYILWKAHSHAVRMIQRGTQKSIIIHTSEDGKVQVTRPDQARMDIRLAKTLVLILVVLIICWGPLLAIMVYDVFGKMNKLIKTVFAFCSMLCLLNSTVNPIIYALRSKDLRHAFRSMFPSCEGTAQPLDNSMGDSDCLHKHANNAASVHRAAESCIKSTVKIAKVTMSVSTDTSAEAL
Protocol: (§1) Antibody-Capture SPA GTP-γ-^35S Binding
(§2) Test exemplified compounds. Measure GTP-γ^35S binding in a 96 well format using a modified antibody capture technique previously described (DeLapp et al. 1999). […] Perform antagonist dose responses in the presence of a saturating dose of full agonist (methanandamide). Add a mixture containing 0.27% Nonidet P40 detergent (Roche, Indianapolis, Ind.), anti-Gi antibody (final dilution of 1:300; Covance, Princeton, N.J.), and 1.25 mg anti-rabbit antibody scintillation proximity assay beads (GE Healthcare, Piscataway, N.J.) and seal the plates and incubate for an additional 3 hours. Centrifuge the plates at 700×g for 10 minutes using a Beckman GS-6R centrifuge and count for 1 minute per well using a Wallac MicroBeta TriLux scintillation counter (PerkinElmer, Boston, Mass.).
(§3) To analyze data, first subtract background from all wells. Determine percent agonist efficacy by normalizing agonist/inverse agonist dose response data to a full agonist (methanandamide) response. Calculating antagonist percent inhibition data by normalizing to results generated with a saturating concentration of methanandamide. Analyze the data using a 4-parameter logistic reduced fit with Activity Base and XLFit3 (IDBS, Emeryville, Calif.). Determine Kb values using a modification of the Cheng-Prusoff relationship: Kb=IC50/(1+[agonist]/EC50) where IC50 is determined from a four parameter fit of displacement curves, [agonist]=EC50 of full agonist, and EC50 is determined from a four parameter fit of a full agonist concentration response curve (Cheng and Prusoff 1973). Calculate mean Kb values as a mean of at least three independent determinations±standard error of the mean (SEM).

hCB1 [2] = target: T1, hCB1; test: Antibody-capture SPA GTP-γ-35S binding, antagonist/inverse agonist, CHO cell membranes; type: biochemical
Protocol: as §1
(§4) Test exemplified compounds. Measure GTP-γ^35S binding in a 96 well format using a modified antibody capture technique previously described (DeLapp et al. 1999). Briefly incubate, CHO or Sf9 cell membranes expressing CB1 or CB2, respectively (Applied Cell Sciences, Gaithersburg, Md.; PerkinElmer Life Sciences, Boston, Mass.); prepare as previously described (DeLapp et al., 1999), exemplified compounds and […] GTP-γ-^35S (PerkinElmer Life Sciences, Boston, Mass.) for 30 minutes (incubate all at room temperature) in GTP-binding assay buffer (20 mM Hepes, 100 mM NaCl, 5 mM MgCl2, pH 7.4). Perform antagonist dose responses in the presence of a saturating dose of full agonist (methanandamide). Add a mixture containing 0.27% Nonidet P40 detergent (Roche, Indianapolis, Ind.), anti-Gi antibody (final dilution of 1:300; Covance, Princeton, N.J.), and 1.25 mg anti-rabbit antibody scintillation proximity assay beads (GE Healthcare, Piscataway, N.J.) and seal the plates and incubate for an additional 3 hours. Centrifuge the plates at 700×g for 10 minutes using a Beckman GS-6R centrifuge and count for 1 minute per well using a Wallac MicroBeta TriLux scintillation counter (PerkinElmer, Boston, Mass.).
as §3

Rat CB1 = target: T2, Rat CB1 (Rattus norvegicus, UniProt P20272); test: as above; type: biochemical
T2 construct: purchased Applied Cell Sciences, Gaithersburg, Md; PerkinElmer Life Sciences, Boston, Mass; host or cells: CHO cells (recombinant expression), membranes
T2 sequence (P20272 whole entry): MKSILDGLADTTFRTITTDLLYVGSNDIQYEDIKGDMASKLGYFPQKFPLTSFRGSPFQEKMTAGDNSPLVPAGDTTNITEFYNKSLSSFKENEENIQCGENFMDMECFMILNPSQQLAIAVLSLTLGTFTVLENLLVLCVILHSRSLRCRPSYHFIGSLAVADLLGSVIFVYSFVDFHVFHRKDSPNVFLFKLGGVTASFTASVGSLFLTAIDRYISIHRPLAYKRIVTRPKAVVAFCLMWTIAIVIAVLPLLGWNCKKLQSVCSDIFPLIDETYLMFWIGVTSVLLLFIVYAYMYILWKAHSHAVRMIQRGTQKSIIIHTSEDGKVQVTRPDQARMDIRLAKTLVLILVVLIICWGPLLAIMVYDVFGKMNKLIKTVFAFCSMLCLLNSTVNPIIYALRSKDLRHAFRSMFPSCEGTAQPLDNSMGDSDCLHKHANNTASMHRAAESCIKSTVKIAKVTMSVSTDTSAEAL
Protocol: as §1, §4, §3

Bioavailability rat = type: in vivo
Source text: (§5) Methods for accessing bioavailabilty are well appreciated in the art. One such reference is Medicinal Research Reviews Vol 21 No. 5 382-396 (2001).

Human CB2 [3] = target: T3, Human CB2 (Homo sapiens, UniProt P34972); test: Antibody-capture SPA GTP-γ-35S binding, antagonist/inverse agonist, Sf9 cell membranes; type: biochemical
T3 construct: purchased Applied Cell Sciences, Gaithersburg, Md; PerkinElmer Life Sciences, Boston, Mass; host or cells: Sf9 insect cells (recombinant expression), membranes
T3 sequence (P34972 whole entry): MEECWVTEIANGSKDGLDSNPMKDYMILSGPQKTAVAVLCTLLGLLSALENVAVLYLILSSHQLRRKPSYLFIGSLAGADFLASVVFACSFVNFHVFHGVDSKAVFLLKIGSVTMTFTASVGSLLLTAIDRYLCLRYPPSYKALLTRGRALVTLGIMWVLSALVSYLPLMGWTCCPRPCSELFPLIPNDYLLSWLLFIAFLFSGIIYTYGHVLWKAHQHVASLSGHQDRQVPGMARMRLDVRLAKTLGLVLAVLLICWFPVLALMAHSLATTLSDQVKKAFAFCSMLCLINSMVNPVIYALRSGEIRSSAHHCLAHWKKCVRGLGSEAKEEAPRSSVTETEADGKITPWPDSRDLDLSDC
Protocol: as §1, §4, §3

hCB1 [4] = target: T1, hCB1; test: Agonist GTP-binding, Sf9 membranes; type: biochemical; set-up: purchased Applied Cell Sciences, Gaithersburg, Md; PerkinElmer Life Sciences, Boston, Mass; host or cells: Sf9 insect cells (recombinant expression), membranes
Protocol: as §1, §2, §3

Bioavailability dog = type: in vivo
Source text: as §5

NIH-Swiss mice = test: Forced swim test (FST); type: in vivo; conditions: minimum effective dose, decrease in immobility time
Protocol: Receive NIH male Swiss mice (Harlan Sprague-Dawley, weigh 20-25 g) 7-10 days prior to testing. House 12 mice/cage. Test animals that weigh 25-30 g. On the day of test, bring animals to the testing room at least 1 hr prior to dosing, when doing starts, 6-8 min. intervals between each dosing with mouse receiving either vehicle or exemplified compounds by p.o., and then put it into a clean cage afterwards (4 mice/cage). Depending on pretreatment time, start the test accordingly.
Mice FST: Place NIH-Swiss mice in clear plastic cylinders (diameter: 10 cm; height: 25 cm) filled to 6 cm with 22-25° C. water for six min. Record the duration of immobility during the last 4 min. of the six-minute trial. A mouse is regarded as immobile when floating motionless or making only those movements necessary to keep its head above the water.
Copy the data-immobility (second) into JMP data sheet, and analyze by ANOVA-Dunnett's test. Record the minimum effective dose (MED) as the lowest dose of compound at which statistically significant decrease in immobility time is observed versus a vehicle control.

Human CB2 [5] = target: T3, Human CB2; test: Agonist GTP-binding, Sf9 membranes; type: biochemical
Protocol: as §1
Test exemplified compounds. Measure GTP-γ^35S binding in a 96 well format using a modified antibody capture technique previously described (DeLapp et al. 1999). Briefly incubate, CHO or Sf9 cell membranes expressing CB1 or CB2, respectively (Applied Cell Sciences, Gaithersburg, Md.; PerkinElmer Life Sciences, Boston, Mass.); prepare as previously described (DeLapp et al., 1999), exemplified compounds and […] GTP-γ-^35S (PerkinElmer Life Sciences, Boston, Mass.) for 30 minutes (incubate all at room temperature) in GTP-binding assay buffer (20 mM Hepes, 100 mM NaCl, 5 mM MgCl2, pH 7.4). Perform antagonist dose responses in the presence of a saturating dose of full agonist (methanandamide). […]
To analyze data, first subtract background from all wells. […] Determine Kb values using a modification of the Cheng-Prusoff relationship: Kb=IC50/(1+[agonist]/EC50) where IC50 is determined from a four parameter fit of displacement curves, [agonist]=EC50 of full agonist, and EC50 is determined from a four parameter fit of a full agonist concentration response curve (Cheng and Prusoff 1973). […]

[6] = Antibody-capture SPA GTP-γ-35S binding, human CB2, read-out: Inverse Agonist Potency CB2 (Kb)

SMILES: CC(C)(N[C@@H]1C[C@H](c2ccccc2)N(c2ccc(OC(F)(F)F)cc2)C1=O)c1ccc(C(F)(F)F)nc1.Cc1ccc(S(=O)(=O)O)cc1 [Example 49, (3R,5R)-3-[1-Methyl-1-(6-trifluoromethyl-pyridin-3-yl)-ethylamino]-5-phenyl-1-(4-trifluoromethoxy-phenyl)-pyrrolidin-2-one tosylate]
- Kb (hCB1 [1]): 2.6 nM
- Kb (hCB1 [2]; Human CB1 (CHO cells), GTP binding, mean ± SEM, read-out: Inverse Agonist Potency [Kb (nM)]): 0.226 ± 0.01 nM
- CB1 antagonism/inverse agonism, in words (hCB1 [2]; human CB1 receptors): potent
- Kb (Rat CB1; Rat CB1 (CHO cells), GTP binding, mean ± SEM, read-out: Inverse Agonist Potency [Kb (nM)]): 0.264 ± 0.02 nM
- CB1 antagonism/inverse agonism, in words (Rat CB1; rat CB1 receptors): potent
- Bioavail. Rat (Bioavailability rat): 36%
- Kb (Human CB2 [3]; Human CB2 (Sf9 cells), GTP binding, mean ± SEM, read-out: Inverse Agonist Potency [Kb (nM)]): 587 ± 191 nM
- CB2 antagonism, in words (Human CB2 [3]; human CB2 receptors): low antagonism
- Agonist Efficacy % (hCB1 [4]; Human CB1, Sf9 membranes, normalized to full agonist methanandamide): −38.3 ± 1.0%
- EC50 (hCB1 [4]; Human CB1, Sf9 membranes, read-out: Agonist Potency EC50): 0.81 ± 0.19 nM
- agonist efficacy at the human CB1 receptor (inverse agonism), in words (hCB1 [4]; human CB1, basal constitutive activity): less than zero
- Bioavail. Dog (Bioavailability dog): 40%
- Forced Swim Test (MED, mg/kg, po) (NIH-Swiss mice): 3 mg/kg
- Agonist Efficacy % (Human CB2 [5]; normalized to full agonist methanandamide): 0%
- EC50 (Human CB2 [5]; read-out: Agonist Potency EC50): > 10000 nM

SMILES: CC(C)(N[C@@H]1C[C@H](c2cccc(OC(F)(F)C(F)F)c2)N(c2ccc(C(F)(F)F)cc2)C1=O)c1ccc(C(F)(F)F)nc1 [Example 40, (3R,5R)-3-[1-Methyl-1-(6-trifluoromethyl-pyridin-3-yl)-ethylamino]-5-[3-(1,1,2,2-tetrafluoro-ethoxy)-phenyl]-1-(4-trifluoromethyl-phenyl)-pyrrolidin-2-one]
- Kb (hCB1 [1]): 0.71 nM
- Bioavail. Rat (Bioavailability rat): 77%
- Kb (Human CB2 [3]; [6]): > 6900 nM
- Bioavail. Dog (Bioavailability dog): 38%

SMILES: Cc1cccc([C@H]2C[C@@H](NC(C)(C)c3ccc(C(F)(F)F)nc3)C(=O)N2c2ccc(OC(F)(F)F)cc2)c1 [Example 1, (3R,5R)-3-[1-Methyl-1-(6-trifluoromethyl-pyridin-3-yl)-ethylamino]-5-(m-tolyl)-1-(4-trifluoromethoxy-phenyl)-pyrrolidin-2-one tosylate]
- Kb (hCB1 [1]): 0.91 nM
- Bioavail. Rat (Bioavailability rat): 7%
- Kb (Human CB2 [3]; [6]): 390 nM
- Bioavail. Dog (Bioavailability dog): 36%

SMILES: CC(F)(F)c1cccc([C@H]2C[C@@H](NC(C)(C)c3ccc(C(F)(F)F)nc3)C(=O)N2c2ccc(OC(F)(F)F)cc2)c1 [Example 32B, (3R,5R)-3-[1-Methyl-1-(6-trifluoromethyl-pyridin-3-yl)-ethyl-amino]-5-[3-(1,1-difluoro-ethyl)-phenyl]-1-(4-trifluoromethoxy-phenyl)-pyrrolidin-2-one]
- Kb (hCB1 [1]): 2.38 nM
- Kb (Human CB2 [3]; [6]): > 4000 nM

SMILES: CC(C)(N[C@H]1C[C@@H](c2ccccc2)N(c2ccc(OC(F)(F)F)cc2)C1=O)c1ccc(C(F)(F)F)nc1 [Example 4, (3S,5S)-3-[1-Methyl-1-(6-trifluoromethyl-pyridin-3-yl)-ethylamino]-5-phenyl-1-(4-trifluoromethoxy-phenyl)-pyrrolidin-2-one tosylate]
- Kb (hCB1 [1]): 107 nM
- Kb (Human CB2 [3]; [6]): > 7230 nM

SMILES: CC(C)(N[C@H]1C[C@H](c2ccccc2)N(c2ccc(OC(F)(F)F)cc2)C1=O)c1ccc(C(F)(F)F)nc1 [Example 44, (3S,5R)-3-[1-Methyl-1-(6-trifluoromethyl-pyridin-3-yl)-ethylamino]-5-phenyl-1-(4-trifluoromethoxy-phenyl)-pyrrolidin-2-one]
- Kb (hCB1 [1]): 72.7 nM
- Kb (Human CB2 [3]; [6]): 4030 nM

SMILES: CC(C)(N[C@@H]1C[C@H](c2cccc(OC(F)(F)C(F)F)c2)N(c2ccc(Cl)cc2)C1=O)c1ccc(C(F)(F)F)nc1 [Example 41, (3R,5R)-3-[1-Methyl-1-(6-trifluoromethyl-pyridin-3-yl)-ethylamino]-5-[3-(1,1,2,2-tetrafluoro-ethoxy)-phenyl]-1-(4-chloro-phenyl)-pyrrolidin-2-one]
- Kb (hCB1 [1]): 0.91 nM
- Bioavail. Rat (Bioavailability rat): 36%
- Kb (Human CB2 [3]; [6]): > 14200 nM
- Bioavail. Dog (Bioavailability dog): 47%
